According to PubChem BioAssay AID2305 (GlaxoSmithKline (GSK), 2010):

Each molecule was assayed on P. falciparum 3D7 growth, pLDH absorbance (assay: P. falciparum 3D7 growth inhibition, dose response, strain 3D7 (AID 2305)).

SMILES | IC50 [nM]
Cc1cc(N[C@@H](CC(C)C)C(=O)NCCc2ccccc2)nc(NCc2ccccc2C)n1 | 910
O=C(c1cc(-c2ccccc2O)on1)N1CCN(C(c2ccccc2)c2ccccc2)CC1 | 340
N#Cc1cc([N+](=O)[O-])ccc1-n1nc(C(N)=O)n(Cc2cccc(F)c2)c1=S | 720
COc1ccc2c(NN=Cc3ccncc3)ccnc2c1 | 960
COc1ccc2c(c1)CCCC2C(C)NCC(O)c1cccc(C(F)(F)F)c1 (centres undefined) | 350
COc1ccc(-c2ccc(NC(=O)c3cccs3)cc2)cc1CN1CCCN(C)CC1 | 960
Cc1[nH]c(C)c([N+](=O)[O-])c(=O)c1-c1ccc(Oc2ccc(OC(F)(F)F)cc2)cc1 | 250
O=C(c1cccc(-c2ccc(-c3nc4ccc(F)cc4[nH]3)s2)c1)N1CCCCC1CN1CCC(O)C1 (centres undefined) | 720
Fc1ccc(NC(=S)NCCc2ccccc2)cc1 | 780
Cc1[nH]c(C)c(-c2ccc(CCc3ccc(N)cc3)cc2)c(=O)c1Cl | 100
CCC(CC(C)C(=O)O)=C(c1ccccc1)c1ccccc1 (centres undefined) | 220
O=C(Nc1ccc(Cl)c(-c2nc3ccccc3[nH]2)c1)c1ccc(-c2ccc(Cl)cc2)o1 | 790
COc1ccc(Nc2nc(NCc3ccco3)c3ccccc3n2)cc1 | 740
FC(F)(F)c1ccc2nc(-c3ccc(-c4ccc(CN5CCN(c6ccncc6)CC5)cc4)s3)[nH]c2c1 | 150
CCn1c(-c2nonc2N)nc2c(-c3cccc(NC(=O)Nc4cccc(OC)c4)c3)ncc(OCCCN)c21 | 770
Cc1ccc(NC(=O)c2cc(Br)cc(N3CCC(N(C)C)CC3)c2)cc1F | 840
CNCCNCc1cccc(-c2cccc(-c3nc4c(C)cccc4[nH]3)c2)c1 | 770
Cc1noc(C)c1C(=O)N1CCc2cc3nccc(N4CCN5CCC[C@H]5C4)c3cc21 | 870
C=CCOC(=O)N1CCC(CNCc2cccc(-c3ccc(-c4nc5ccccc5[nH]4)s3)c2)C1 (centres undefined) | 270
O=C(N[C@@H](CC1CCCCC1)C(=O)NCCN1CCCCC1)c1ccc(O)c(-c2cccc(C(F)(F)F)c2)c1 | 830
O=C(Cc1ccc(F)cc1)NC1CCN(c2ccnc3cc(Cl)ccc23)C1 (centres undefined) | 480
CCN(CC)CCN(Cc1ccc(-c2ccc(C(F)(F)F)cc2)cc1)C(=O)Cn1c(CCc2ccc(F)c(F)c2F)nc(=O)c2ccccc21 | 790
COc1ccc2nccc(NN=Cc3ccc(Cl)cc3)c2c1 | 210
Fc1ccc(-c2cncc(Nc3ccncc3)n2)cc1 | 1320
CC(C)N1CCN(C(=O)c2ccc(CNCCCN3CCN(c4cccc(Cl)c4Cl)CC3)o2)CC1 | 740

SMILES | IC50 [nM]
N#Cc1cccc(NC(=O)Nc2ccc(-c3cccc(-c4nc5ccc(F)cc5[nH]4)c3)cc2)c1 | 270
O=C(NCCCN1CCCCC1)c1cccc(Nc2nccc(Nc3ccc(Oc4ccccc4)cc3)n2)c1 | 820
COc1cc(Cc2cnc(N)nc2N)cc(OC(C)C)c1OC | 1040
CC(C)C1C(O)=C(c2ccc3ccccc3c2)C(=O)N1Cc1ccsc1 (centres undefined) | 1070
COc1ccc(F)cc1-c1ccc(C(=O)N2CCCN(c3ccc(C#N)cn3)CC2)cc1 | 110
Cc1cc(-c2ccc(S(=O)(=O)Nc3cc4c(cc3OC(C)C)CCN(C)CC4)cc2)ccc1Cl | 900
CCCNCc1ccc(-c2ccc(CN(CCOC)C(=O)c3cnc(C)cn3)cc2)nc1 | 1250
Fc1ccc(COc2ccc(Nc3ncnc4ccc(I)cc34)cc2Cl)cc1 | 1180
CCN(CC)CCN(Cc1ccc(-c2ccc(C(F)(F)F)cc2)cc1)C(=O)Cn1c(CCc2cc(F)cc(F)c2)nc(=O)c2ccccc21 | 980
Cc1cccc(NC(=O)N(Cc2cc3cc(C)cc(C)c3[nH]c2=O)C2CC2)c1 | 340
COC(=O)c1cccc(NC(=O)NCCNc2ccnc(Nc3ccc(F)cc3)n2)c1 | 840
O=c1cc(NCCCN(Cc2ccccc2)Cc2ccccc2)[nH]c2ccccc12 | 580
Cc1cc(F)ccc1Nc1nc(N(C)c2ccccc2)c2cc(OCCN(C)C)ccc2n1 | 790
Cc1ccc(-c2ccc(NC(=O)N3CCc4cc(Br)c(N5CCN(C)CC5)cc43)cc2)cn1 | 1350
CC(=O)c1c[nH]c(C(=O)Nc2ccc(-c3cn4ccccc4n3)cc2)c1 | 890
CN1CCN(C(C(=O)NCc2cc(Cl)cc(Cl)c2)c2ccc(NC(=O)Nc3ccccc3)cc2)CC1 (centres undefined) | 690
CCCN1CCN(Cc2ccc(C(=O)Nc3ccc(Cl)cc3)cc2)CC1 | 50
CCOc1ccccc1CCNC(C)Cc1ccc(C(=O)Nc2ccc(CC(C)NCCc3cccc(Cl)c3)cc2)cc1 (centres undefined) | 540
O=[N+]([O-])c1cccc(CNC2CCN(Cc3ccc(Cl)c(Cl)c3)CC2)c1 | 460
Cc1cc2cc(NC(=O)Nc3ccnc4ccccc34)ccc2n1C | 1090
CCN(CC)CCNc1ccc(Nc2ccnc3cc4ccccc4cc23)cc1 | 200
COc1ccc(COc2c(OC)cc(Cc3cnc(N)nc3N)cc2OC)cc1 | 910
Cc1[nH]c(C)c(-c2ccc(Oc3ccc(F)cc3)cc2)c(=O)c1Cl | 50
Cc1nn(-c2ccccc2)c2nc(-c3ccccc3)cc(C(=O)N3CCOCC3)c12 | 870
